Laboratory results from patent publication US6706740B2, “Fungicidal heterocyclic aromatic amides and their compositions, methods of use and preparation” (Dow AgroSciences LLC, priority 1999, dated 2004).

test system: Magnaporthe grisea (Pyricularia oryzae—PYRIOR); experiment: microbe, parasite or virus in culture; assay type: cell-based; conditions: Pyricularia oryzae, read-out: PYRIOR in vitro Growth Inhibition

| SMILES | inhibition at 25 ppm |
| --- | --- |
| COc1ccnc(C(=O)Nc2ccc(C(=O)Oc3cccc(C(F)(F)F)c3)cc2)c1O [Compound 451] | > 80% |
| COc1ccnc(C(=O)N[C@H]2COC(=O)[C@H](Cc3ccccc3)[C@@H](OC(=O)C(C)C)[C@H](C)OC2=O)c1OC(=O)C1CCC1 [Compound 604] | < 80% |
| CC1(C)CC(NC(=O)c2cnccc2O)CC(C)(C)C1 [Compound 502] | < 80% |
| CC1(C)CC(NC(=O)c2cn(-c3ccccc3)nc2O)CC(C)(C)C1 [Compound 559] | < 80% |

test system: Rhizoctonia solani (RHIZSO); experiment: microbe, parasite or virus in culture; assay type: cell-based; conditions: Rhizoctonia solani, read-out: RHIZSO in vitro Growth Inhibition

| SMILES | inhibition at 25 ppm |
| --- | --- |
| COc1ccnc(C(=O)Nc2ccc(C(=O)Oc3cccc(C(F)(F)F)c3)cc2)c1O [Compound 451] | < 80% |
| COc1ccnc(C(=O)N[C@H]2COC(=O)[C@H](Cc3ccccc3)[C@@H](OC(=O)C(C)C)[C@H](C)OC2=O)c1OC(=O)C1CCC1 [Compound 604] | < 80% |
| CC1(C)CC(NC(=O)c2cnccc2O)CC(C)(C)C1 [Compound 502] | < 80% |
| CC1(C)CC(NC(=O)c2cn(-c3ccccc3)nc2O)CC(C)(C)C1 [Compound 559] | < 80% |

test system: Mycosphaerella graminicola (Septoria tritici—SEPTTR); experiment: In vitro fungal growth inhibition, Mycosphaerella graminicola (SEPTTR); assay type: cell-based; conditions: Zymoseptoria tritici; 25 ppm in growth medium; read-out: SEPTTR in vitro Growth Inhibition

| SMILES | inhibition at 25 ppm |
| --- | --- |
| COc1ccnc(C(=O)Nc2ccc(C(=O)Oc3cccc(C(F)(F)F)c3)cc2)c1O [Compound 451] | < 80% |
| COc1ccnc(C(=O)N[C@H]2COC(=O)[C@H](Cc3ccccc3)[C@@H](OC(=O)C(C)C)[C@H](C)OC2=O)c1OC(=O)C1CCC1 [Compound 604] | < 80% |

same assay, conditions: Zymoseptoria tritici; 25 ppm in the growth medium; read-out: SEPTTR in vitro Growth Inhibition

| SMILES | inhibition at 25 ppm |
| --- | --- |
| CC1(C)CC(NC(=O)c2cnccc2O)CC(C)(C)C1 [Compound 502] | < 80% |
| CC1(C)CC(NC(=O)c2cn(-c3ccccc3)nc2O)CC(C)(C)C1 [Compound 559] | < 80% |

test system: Stagonospora nodorum (Leptosphaeria nodorum—LEPTNO); experiment: In vitro fungal growth inhibition, Stagonospora nodorum (LEPTNO); assay type: cell-based; conditions: Leptosphaeria; 25 ppm in growth medium; read-out: LEPTNO in vitro Growth Inhibition

| SMILES | inhibition at 25 ppm |
| --- | --- |
| COc1ccnc(C(=O)Nc2ccc(C(=O)Oc3cccc(C(F)(F)F)c3)cc2)c1O [Compound 451] | < 80% |
| COc1ccnc(C(=O)N[C@H]2COC(=O)[C@H](Cc3ccccc3)[C@@H](OC(=O)C(C)C)[C@H](C)OC2=O)c1OC(=O)C1CCC1 [Compound 604] | < 80% |

same assay, conditions: Leptosphaeria; 25 ppm in the growth medium; read-out: LEPTNO in vitro Growth Inhibition

| SMILES | inhibition at 25 ppm |
| --- | --- |
| CC1(C)CC(NC(=O)c2cnccc2O)CC(C)(C)C1 [Compound 502] | < 80% |
| CC1(C)CC(NC(=O)c2cn(-c3ccccc3)nc2O)CC(C)(C)C1 [Compound 559] | < 80% |

test system: Ustilago maydis (USTIMA); experiment: microbe, parasite or virus in culture; assay type: cell-based; conditions: Mycosarcoma maydis, read-out: USTIMA in vitro Growth Inhibition

| SMILES | inhibition at 25 ppm |
| --- | --- |
| COc1ccnc(C(=O)Nc2ccc(C(=O)Oc3cccc(C(F)(F)F)c3)cc2)c1O [Compound 451] | < 80% |
| COc1ccnc(C(=O)N[C@H]2COC(=O)[C@H](Cc3ccccc3)[C@@H](OC(=O)C(C)C)[C@H](C)OC2=O)c1OC(=O)C1CCC1 [Compound 604] | < 80% |
| CC1(C)CC(NC(=O)c2cnccc2O)CC(C)(C)C1 [Compound 502] | < 80% |
| CC1(C)CC(NC(=O)c2cn(-c3ccccc3)nc2O)CC(C)(C)C1 [Compound 559] | < 80% |

test system: Phytophthora infestans (PHYTIN); experiment: microbe, parasite or virus in culture; assay type: cell-based; conditions: Phytophthora infestans, read-out: PHYTIN in vitro Growth Inhibition

| SMILES | inhibition at 25 ppm |
| --- | --- |
| COc1ccnc(C(=O)Nc2ccc(C(=O)Oc3cccc(C(F)(F)F)c3)cc2)c1O [Compound 451] | < 80% |
| COc1ccnc(C(=O)N[C@H]2COC(=O)[C@H](Cc3ccccc3)[C@@H](OC(=O)C(C)C)[C@H](C)OC2=O)c1OC(=O)C1CCC1 [Compound 604] | < 80% |
| CC1(C)CC(NC(=O)c2cnccc2O)CC(C)(C)C1 [Compound 502] | < 80% |
| CC1(C)CC(NC(=O)c2cn(-c3ccccc3)nc2O)CC(C)(C)C1 [Compound 559] | < 80% |

test system: Phytophthora infestans—PHYTIN; experiment: whole plant or invertebrate; assay type: in vivo; conditions: Phytophthora, in Solanum lycopersicum, 24 h, read-out: PHYTIN in vivo 1 Day Protectant

| SMILES | pest or weed control at 100 ppm |
| --- | --- |
| COc1ccnc(C(=O)Nc2ccc(C(=O)Oc3cccc(C(F)(F)F)c3)cc2)c1O [Compound 451] | < 25% |
| COc1ccnc(C(=O)N[C@H]2COC(=O)[C@H](Cc3ccccc3)[C@@H](OC(=O)C(C)C)[C@H](C)OC2=O)c1OC(=O)C1CCC1 [Compound 604] | < 25% |
| CC1(C)CC(NC(=O)c2cnccc2O)CC(C)(C)C1 [Compound 502] | < 25% |
| CC1(C)CC(NC(=O)c2cn(-c3ccccc3)nc2O)CC(C)(C)C1 [Compound 559] | < 25% |

test system: Puccinia recondita—PUCCRT; experiment: Brown Rust of Wheat, in vivo whole plant, 24 Hour Protectant; conditions: 100 ppm spray, wheat, 24 hour protectant, % control of fungal infection vs untreated plants

| SMILES | PUCCRT in vivo 1 Day Protectant |
| --- | --- |
| COc1ccnc(C(=O)N[C@H]2COC(=O)[C@H](Cc3ccccc3)[C@@H](OC(=O)C(C)C)[C@H](C)OC2=O)c1OC(=O)C1CCC1 [Compound 604] | + + |

same assay, conditions: Puccinia; 100 ppm spray, wheat, 24 hour protectant; control of fungal infection vs untreated plants; read-out: PUCCRT in vivo 1 Day Protectant

| SMILES | pest or weed control at 100 ppm |
| --- | --- |
| COc1ccnc(C(=O)Nc2ccc(C(=O)Oc3cccc(C(F)(F)F)c3)cc2)c1O [Compound 451] | 25 to 74% |

same assay, conditions: Puccinia; wheat plants sprayed at 100 ppm, inoculated after 24 hours; control of fungal infection vs untreated plants; read-out: PUCCRT in vivo 1 Day Protectant

| SMILES | pest or weed control at 100 ppm |
| --- | --- |
| CC1(C)CC(NC(=O)c2cnccc2O)CC(C)(C)C1 [Compound 502] | 25 to 74% |
| CC1(C)CC(NC(=O)c2cn(-c3ccccc3)nc2O)CC(C)(C)C1 [Compound 559] | 25 to 74% |

test system: Erysiphe graminis—ERYSGT; experiment: Powdery Mildew of Wheat, in vivo whole plant, 24 Hour Protectant; conditions: 100 ppm spray, wheat, 24 hour protectant, % control of fungal infection vs untreated plants

| SMILES | ERYSGT in vivo 1 Day Protectant |
| --- | --- |
| COc1ccnc(C(=O)N[C@H]2COC(=O)[C@H](Cc3ccccc3)[C@@H](OC(=O)C(C)C)[C@H](C)OC2=O)c1OC(=O)C1CCC1 [Compound 604] | + + |

same assay, conditions: Erysiphe; 100 ppm spray, wheat, 24 hour protectant; control of fungal infection vs untreated plants; read-out: ERYSGT in vivo 1 Day Protectant

| SMILES | pest or weed control at 100 ppm |
| --- | --- |
| COc1ccnc(C(=O)Nc2ccc(C(=O)Oc3cccc(C(F)(F)F)c3)cc2)c1O [Compound 451] | < 25% |

same assay, conditions: Erysiphe; wheat plants sprayed at 100 ppm, inoculated after 24 hours; control of fungal infection vs untreated plants; read-out: ERYSGT in vivo 1 Day Protectant

| SMILES | pest or weed control at 100 ppm |
| --- | --- |
| CC1(C)CC(NC(=O)c2cnccc2O)CC(C)(C)C1 [Compound 502] | < 25% |
| CC1(C)CC(NC(=O)c2cn(-c3ccccc3)nc2O)CC(C)(C)C1 [Compound 559] | < 25% |

test system: Septoria tritici—SEPTTR; experiment: Leaf Blotch of Wheat, in vivo whole plant, 24 Hour Protectant; conditions: 100 ppm spray, wheat, 24 hour protectant, % control of fungal infection vs untreated plants

| SMILES | SEPTTR in vivo 1 Day Protectant |
| --- | --- |
| COc1ccnc(C(=O)N[C@H]2COC(=O)[C@H](Cc3ccccc3)[C@@H](OC(=O)C(C)C)[C@H](C)OC2=O)c1OC(=O)C1CCC1 [Compound 604] | + + |

same assay, conditions: Zymoseptoria tritici, 24 h, 100 ppm spray, wheat, 24 hour protectant; control of fungal infection vs untreated plants; read-out: SEPTTR in vivo 1 Day Protectant

| SMILES | pest or weed control at 100 ppm |
| --- | --- |
| COc1ccnc(C(=O)Nc2ccc(C(=O)Oc3cccc(C(F)(F)F)c3)cc2)c1O [Compound 451] | < 25% |

same assay, conditions: Zymoseptoria tritici, 24 h, wheat plants sprayed at 100 ppm, inoculated after 24 hours; control of fungal infection vs untreated plants; read-out: SEPTTR in vivo 1 Day Protectant

| SMILES | pest or weed control at 100 ppm |
| --- | --- |
| CC1(C)CC(NC(=O)c2cnccc2O)CC(C)(C)C1 [Compound 502] | 25 to 74% |
| CC1(C)CC(NC(=O)c2cn(-c3ccccc3)nc2O)CC(C)(C)C1 [Compound 559] | < 25% |

test system: Leptosphaeria nodorum—LEPTNO; experiment: Glume Blotch of Wheat, in vivo whole plant, 24 Hour Protectant; conditions: 100 ppm spray, wheat, 24 hour protectant, % control of fungal infection vs untreated plants

| SMILES | LEPTNO in vivo 1 Day Protectant |
| --- | --- |
| COc1ccnc(C(=O)N[C@H]2COC(=O)[C@H](Cc3ccccc3)[C@@H](OC(=O)C(C)C)[C@H](C)OC2=O)c1OC(=O)C1CCC1 [Compound 604] | + + |

same assay, conditions: Leptosphaeria; 100 ppm spray, wheat, 24 hour protectant; control of fungal infection vs untreated plants; read-out: LEPTNO in vivo 1 Day Protectant

| SMILES | pest or weed control at 100 ppm |
| --- | --- |
| COc1ccnc(C(=O)Nc2ccc(C(=O)Oc3cccc(C(F)(F)F)c3)cc2)c1O [Compound 451] | 25 to 74% |

same assay, conditions: Leptosphaeria; wheat plants sprayed at 100 ppm, inoculated after 24 hours; control of fungal infection vs untreated plants; read-out: LEPTNO in vivo 1 Day Protectant

| SMILES | pest or weed control at 100 ppm |
| --- | --- |
| CC1(C)CC(NC(=O)c2cnccc2O)CC(C)(C)C1 [Compound 502] | 25 to 74% |
| CC1(C)CC(NC(=O)c2cn(-c3ccccc3)nc2O)CC(C)(C)C1 [Compound 559] | 25 to 74% |

test system: not given; experiment: not given; conditions: not given

| SMILES | melting point |
| --- | --- |
| COc1ccnc(C(=O)Nc2ccc(C(=O)Oc3cccc(C(F)(F)F)c3)cc2)c1O [Compound 451] | 196 °C (dec.) |
| COc1ccnc(C(=O)N[C@H]2COC(=O)[C@H](Cc3ccccc3)[C@@H](OC(=O)C(C)C)[C@H](C)OC2=O)c1OC(=O)C1CCC1 [Compound 604] | 176 to 177 °C |
| CC1(C)CC(NC(=O)c2cnccc2O)CC(C)(C)C1 [Compound 502] | 232 to 235 °C (dec.) |
| CC1(C)CC(NC(=O)c2cn(-c3ccccc3)nc2O)CC(C)(C)C1 [Compound 559] | 215 to 217 °C |
